Results filed as inconclusive are left out. Activity calls are given as the source filed them. How the calls were made is not given here. Where a SMILES comes first, the peptide text is derived from it.
Test system: mouse/rat in vivo micronucleus assay, summary call
Assay: In vivo micronucleus assay summary data
Excerpt: The erythrocyte micronucleus test examines the ability of substances to cause chromosome damage in developing red blood cells inside bone marrow. A micronucleus (literally, "little nucleus") is a biomarker of structural chromosome damage (e.g., breaks) and changes in chromosome number (e.g., chromosome loss). If a chromosome is broken or fails to migrate properly with other chromosomes during cell division, the broken piece or lost chromosome will form a small (micro) nucleus of its own in one of the two daughter cells produced. Detection of chromosomal damage is important because it has been linked to birth defects, infertility, and certain diseases, including cancer.
The micronucleus test is performed in rapidly dividing cell populations, and bone marrow is a site of rapid blood cell division. Both bone marrow and peripheral blood samples can be examined for the presence of micronuclei in red blood cells.
Animals are treated with a test substance once or daily over a period of time, and the frequency of micronucleated cells is determined 24-48 hours after the final treatment, depending on the source of the cells (bone marrow or blood) that are examined and the treatment regimen.
The test subjects are rodents (rats or mice) that are exposed to the test substance, usually by oral gavage or injection. Typically, one to three daily treatments of the test substance are administered over a range of doses; the highest dose tested is near the maximum tolerated dose. Groups of negative and positive control animals are included for each test. Bone marrow samples are obtained from all animals 24 hours after the last treatment, and red blood cells are examined for the presence of micronuclei.
B. Peripheral Blood Tests
Micronucleus tests are performed on male and female rodents that are exposed to the test substance orally, dermally, or by inhalation in subchronic (e.g., 28 or 90 days) or short term (e.g., 48-72 hours) toxicity studies. 24 to 48 hours after the final exposure, peripheral blood samples are obtained and red blood cells are examined for the presence of micronuclei. Samples may be examined using standard slide scoring procedures or automated flow cytometric approaches. Since 2007, NTP has routinely relied on flow cytometry to evaluate the frequency of micronucleated cells in peripheral blood.
Peripheral blood micronucleus assays are typically integrated into all NTP toxicity studies, and they also lend themselves to serial monitoring of micronucleus frequencies over time, since blood samples can be obtained without the need to sacrifice the animals.
Blood or bone marrow samples from treated animals are compared to samples from untreated animals. With the slide-based approach for data acquisition, 1000-2000 cells were scored per animal. Using flow cytometric procedures to evaluate blood samples, 20,000 immature red blood cells and around one million mature red blood cells are examined per animal, resulting in a marked increase in the ability to detect small changes in the frequency of micronucleated red blood cells. The data is analyzed using statistical methods to determine if there is a significant increase in the frequency of cells containing micronuclei. Both dose-related responses and the magnitude of response for each independent dose group are considered during the evaluation of the data. For a positive test, both a significant dose response (trend) and at least one significant dose group are required. If only one of these measures is present, the test is determined to be questionable. The absence of either condition results in a negative test. The final conclusions for micronucleus tests are determined by considering the results of statistical analyses, reproducibility of any observed effects, and the magnitude of the effects. Ultimately, both the biological significance as well as statistical significance is considered when reaching a final conclusion.
[…]

Compound	outcome
C(=NC1CCCCC1)=NC1CCCCC1	active; weakly positive
Cc1cccc([N+](=O)[O-])c1	inactive; negative
CC[C@H](CC[C@@H](C)[C@H]1CC[C@H]2[C@@H]3CC=C4C[C@@H](O)CC[C@]4(C)[C@H]3CC[C@]12C)C(C)C	inactive; negative
O=C(O)CS	active; positive
CC1C(=O)C[C@]2(C(C)C)C[C@H]12 (some centres undefined)	active; positive
CCN(N=O)C(N)=O	active; positive
COC(=O)[C@H](Cc1ccccc1)NC(=O)[C@@H](N)CC(=O)O (H-Asp-Phe-OMe)	active; positive
CCCCn1cc[n+](C)c1	inactive; negative
Cc1c2ccccc2c(C)c2c1ccc1ccccc12	active; positive
COc1cc(Cc2cnc(N)nc2N)cc(OC)c1OC (tested in a mixture with another compound)	active; positive
CC(C)C=O	inactive; negative
CN(C)C(=O)Nc1ccc(Cl)cc1	active; positive
O=NO	inactive; negative
C=CC(=C)C	active; positive
Nc1ccc(Cl)cc1	active; positive
O=C1c2cccc(O)c2C(=O)c2c(O)cccc21	inactive; negative
O=C(O)C=Cc1ccc(O)c(O)c1	active; positive
CN(C)c1ccc(C(c2ccccc2)c2ccc(N(C)C)cc2)cc1	active; positive
Cc1cccc(Nc2cc(Cl)nc(SCC(=O)O)n2)c1C	inactive; negative
CC(O)COC(C)(C)C (centres undefined)	active; weakly positive
CBr	active; positive
C=C(C)C#N	inactive; negative
C=CCc1cc(OC)c2c(c1)OCO2	active; negative
FC(F)(F)c1ccc(Cl)cc1	active; positive
O=C1O[C@H]([C@@H](O)CO)C(O)=C1O	active; positive

Compound	outcome
CCOS(C)(=O)=O	active; positive
O=C1c2ccccc2C(=O)c2ccccc21	active; positive
CC[C@]1(O)C[C@H]2CN(CCc3c([nH]c4ccccc34)[C@@](C(=O)OC)(c3cc4c(cc3OC)N(C=O)[C@H]3[C@@](O)(C(=O)OC)[C@H](OC(C)=O)[C@]5(CC)C=CCN6CC[C@]43[C@@H]65)C2)C1	active; positive
[O-][N+](=Nc1ccc(Cl)c(Cl)c1)c1ccc(Cl)c(Cl)c1	active; positive
CC(C)(C)c1ccc(O)c(O)c1	inactive; negative
CS(=O)(=O)OC[C@H](O)[C@@H](O)COS(C)(=O)=O	active; positive
ClCC(Cl)(Cl)Cl	active; positive
Cc1cn([C@H]2C[C@H](N=[N+]=[N-])[C@@H](CO)O2)c(=O)[nH]c1=O	active; positive
Cc1ncc[nH]1	active; positive
C=C(C#N)C(=O)OCC	inactive; negative
O=S(=O)(c1ccc(Cl)cc1)c1ccc(Cl)cc1	active; positive
Cc1cn([C@H]2C=C[C@@H](CO)O2)c(=O)[nH]c1=O	active; positive
ClC(Cl)Cl	active; positive
CC=Cc1ccc(O)c(OC)c1	active; positive
OC(O)C(Cl)(Cl)Cl	active; positive
BrCCBr	active; positive
Oc1ccc(O)cc1	active; positive
c1cc(OCC2CO2)cc(OCC2CO2)c1 (centres undefined)	active; positive
O[C@@H]([C@H](O)[C@H](O)CBr)[C@H](O)CBr	active; positive
c1ccccc1	active; positive
Nc1ccc(-c2ccccc2)cc1	active; positive
CCCCCC=CC=CC=O	active; equivocal
[O-][Br+2]([O-])O	active; positive
NC(=O)c1ncn([C@@H]2O[C@H](CO)[C@@H](O)[C@H]2O)n1	active; positive
